Experimental data from patent US8748460B2, “Iminosugars and methods of treating togaviral diseases” (priority 2009, dated 2014).

Tests used:
[1] = test system: Venezuelan Equine Encephalitis (Togaviridae) TC-83 strain; assay type: cell-based, Venezuelan equine encephalitis virus; conditions: read-out: EC50, VEE virus inhibition
[2] = test system: Rift Valley Fever Virus (Bunyavirus) MP12 strain; assay type: cell-based; conditions: read-out: EC50, RVFV MP12 virus inhibition
[3] = test system: Chikungunya (Togaviridae) 181/25 strain; assay type: cell-based; conditions: read-out: EC50, Chikungunya virus inhibition

Row | Compound | EC50 [1] [µM] | EC50 [2] [µM] | EC50 [3] [µM] | toxicity at the highest concentration (Vero cells) | toxicity to cells at the highest concentration (Vero cells)
1 | CCCCN1C[C@H](O)[C@@H](O)[C@H](O)[C@H]1CO [UV-1, N-Butyl deoxynojirimycin] | 156 | – | – | – | –
2 | CCCCCCCCCN1C[C@H](O)[C@@H](O)[C@H](O)[C@H]1CO [UV-2, N-Nonyl dexoynojirimycin] | 12 | 58 | 56 | toxic | toxic
3 | CCCOCCCCCCN1C[C@H](O)[C@@H](O)[C@H](O)[C@H]1CO [UV-3, N-(7-Oxadecyl)deoxynojirimycin] | – | 218 | – | – | –
4 | [N-]=[N+]=Nc1ccc(NCCCCCCN2C[C@H](O)[C@@H](O)[C@H](O)[C@H]2CO)c([N+](=O)[O-])c1 [UV-5, N—(N-{4′-azido-2′-nitrophenyl}-6-aminohexyl)deoxynojirimycin] | 2 | 49 | 22 | – | –
